Legend:
[1] = system: WT (TRPM2+/+) and TRPM2 knockout (TRPM2-/-) mice, tMCAO; experiment: tMCAO in WT and TRPM2 knockout mice given autophagy inhibitor; type: in vivo, mouse; conditions: FIG. 12
From the text: After isoflurane inhalation gas anesthesia of 22-25 g male WT mice (TRPM2+/+) and TRPM2 knockout (TRPM2−/−) mice, the fiber-optic probes of laser Doppler flowmeter were fixed to the skull of the animals with glue and used to monitor the cerebral blood flow of the middle cerebral artery (MCA) supplying cortex.
The mice were fixed in the supine position, and the middle of the neck was dehaired and routinely sterilized with 75% alcohol. […] Only animals whose blood flow values decreased to 20% of the basic value were selected according to the blood flow data monitored by the flowmeter. […]
The mice were decapitated 24 h after ischemia-reperfusion, the coronal planes of the brains were cut into brain slices of about 2 mm thickness uniformly. […] The processed brain slices were photographed using a macro camera, and Image J image analysis software was used to calculate and count the cerebral infarct volume, and the measured results are shown in FIG. 11. […]

[2] = system: dopaminergic neurons differentiated from iPSC derived from disseminated PD patients; experiment: mitochondrial fusion morphology (Mitotracker, Girk2 labeling) of iPSC differentiated dopaminergic neurons; type: cell-based, human; conditions: II-23 0.6 μM, ACA 0.5 μM; Mitotracker staining, Girk2-positive neurons
Protocol: Using normal and disseminated PD patient-derived induced pluripotent stem cells (iPSC), performing drug interventions using the TRPM2 inhibitors ACA and II-23 after they were induced and differentiated into mature dopaminergic neurons, the drug treating method is as follows: • a. Calculating the materials for the experiment, and starting preparing when the dopaminergic neurons are differentiated to the 8th day. The petri dishes should be treated with 33 μg/mL PDL overnight and washed with sterilized water. After drying, 2 μg/mL of laminin was added and incubated overnight. Both PDL and laminin can be recycled for reuse. • b. […] Fluorescence confocal imaging was performed using a confocal dish inoculated with 2 mL/dish, and cell viability assays were performed using a 96-well plate inoculated with 100 μL/well. […]
Positive dopamine neurons were labeled with a dopaminergic neuron marker molecule Girk2 antibody susceptible for SNc, and cellular mitochondria were labeled with the mitochondrial dye mitotracker as in FIG. 15. […] Finally, performing the fluorescence imaging: removing the secondary antibody, and washing three times with 1×PBS, adding 50% Glycerol for fluorescence protection, and then imaging with a Zeiss LSM880 laser confocal microscope, as shown in FIG. 15.

[3] = system: dopaminergic neurons differentiated from iPSC derived from disseminated PD patients; experiment: cell viability (cell titer glo) of iPSC differentiated dopaminergic neurons; type: cell-based, human; conditions: II-23 0.6 μM, ACA 0.5 μM, from day 15 of culture; CTG kit
Protocol: Using normal and disseminated PD patient-derived induced pluripotent stem cells (iPSC), performing drug interventions using the TRPM2 inhibitors ACA and II-23 after they were induced and differentiated into mature dopaminergic neurons, the drug treating method is as follows: • a. Calculating the materials for the experiment, and starting preparing when the dopaminergic neurons are differentiated to the 8th day. The petri dishes should be treated with 33 μg/mL PDL overnight and washed with sterilized water. After drying, 2 μg/mL of laminin was added and incubated overnight. Both PDL and laminin can be recycled for reuse. • b. Digesting and collecting the differentiated cells with Accutase, and counting with a cell counting plate, and then diluting to 500,000/mL with maturation medium (Y-27632 should be added). Fluorescence confocal imaging was performed using a confocal dish inoculated with 2 mL/dish, and cell viability assays were performed using a 96-well plate inoculated with 100 μL/well. Taking this time point as the 10th day, changing to Y-27632-free medium on the 11th day, and changing the medium every two days. • c. When the cells were cultured to the 15th day, treating the drugs to a final concentration with the medium, the working concentration of ACA is 0.5 μM, and the working concentration of II-23 is 0.6 μM, and the drug-containing medium was changed every four days. […]

| SMILES | cerebroprotective effect of reduced TRPM2 levels during cerebral ischemia reperfusion [1] | excessive mitochondrial fusion in dopaminergic neurons derived from PD patients [2] | cell viability of differentiated dopaminergic neurons derived from disseminated PD patients [3] |
| --- | --- | --- | --- |
| Cn1cnc(N)c2ncnc1-2 [Compound 3-MA] | reversed | – | – |
| CCCCCc1ccc(/C=C/C(=O)Nc2ccccc2C(=O)O)cc1 [ACA, reference compound] | – | reversed | restored |
